Data published in US20240076297A1, “ADENOSINE A2A AND A2B RECEPTOR DUAL ANTAGONISTS FOR IMMUNO-ONCOLOGY” (Merck Sharp & Dohme LLC, priority 2020, published 2024).

What follows are compounds tested against human A2A adenosine receptor (Homo sapiens (Human), UniProt P29274) (assay: A2A binding affinity using radioligand binding, Method (A)). Conditions: Method (A): filtration radioligand binding, [3H] SCH58261, membranes expressing human A2A.
Source text: Method (A) describes the procedure used to measure A2A binding affinity using radioligand binding. Method (B) describes the procedure used to measure A2A binding affinity using SPA technology. The method used to measure A2B binding affinity is also described below. The method used to determine the A2A IC50 value reported for each compound in the table is indicated next to the reported value. The A2B IC50 value measured using the A2B binding affinity assay is shown in the table next to the compound under the corresponding A2A value.
The A2A receptor affinity binding assay measured the amount of binding of a tritiated ligand with high affinity for the A2A adenosine receptor to membranes made from HEK293 or CHO cells recombinantly expressing the human A2A adenosine receptor, in the presence of varying concentrations of a compound of the invention. The data were generated using either filtration binding or a homogenous scintillation proximity assay (SPA).
Method (A): Measurement of A2A Binding Affinity Using Radioligand Binding
148 μL (5 μg/mL) membranes (Perkin Elmer, Cat. No. RBHA2aM400UA) and 2 μL compounds of the invention to be tested (test compound) were transferred to individual wells of a 96-well polypropylene assay plate and incubated for 15 to 30 min at room temperature. [^3H] SCH58261 ((7-(2-phenylethyl)-5-amino-2-(2-furyl)-pyrazolo-[4,3-e]-1,2,4-triazolo[1,5-c]pyrimidine)) was diluted in assay buffer (50 mM Tris pH 7.4, 10 mM MgCl2, 0.005% Tween20) to a concentration of 4 nM and 50 μL transferred to each well of the assay plate. To define total and non-specific binding, wells containing 1% DMSO and 1 μM ZM241385 (Tocris Bioscience, Cat. No. 1036) respectively, were also included. The assay plate was incubated at room temperature for 60 min with agitation. Using a FilterMate Harvester® (Perkin Elmer), the contents of the assay plate were filtered through a UniFilter-96® PEI coated plate (Perkin Elmer Cat. No. 6005274 or 6005277). Filtering was achieved by aspirating the contents of the assay plate for 5 sec, then washing and aspirating the contents three times with ice-cooled wash buffer (50 mM Tris-HCl pH 7.4, 150 mM NaCl) and allowing the vacuum manifold to dry the plate for 30 sec. The filter plate was incubated for at least 1 h at 55° C. and allowed to dry. The bottom of the filter plate was sealed with backing tape. 40 μL Ultima Gold™ (Perkin Elmer, Cat. No. 6013329) was added to each well of the filter plate and the top of the plate was sealed with TopSeal-A PLUS® clear plate seal (Perkin Elmer, Cat. No. 6050185). The plate was incubated for at least 20 min, and then the amount of radioactivity remaining in each well was determined using a TopCount® (Perkin Elmer) scintillation counter. After normalization to total and non-specific binding, the percent effect at each compound concentration was calculated. The plot of percent effect versus the log of compound concentration was analyzed electronically using a 4-parameter logistic fit based on the Levenberg-Marquardt algorithm to generate IC50 values.

Sequence of human A2A adenosine receptor (P29274 whole entry): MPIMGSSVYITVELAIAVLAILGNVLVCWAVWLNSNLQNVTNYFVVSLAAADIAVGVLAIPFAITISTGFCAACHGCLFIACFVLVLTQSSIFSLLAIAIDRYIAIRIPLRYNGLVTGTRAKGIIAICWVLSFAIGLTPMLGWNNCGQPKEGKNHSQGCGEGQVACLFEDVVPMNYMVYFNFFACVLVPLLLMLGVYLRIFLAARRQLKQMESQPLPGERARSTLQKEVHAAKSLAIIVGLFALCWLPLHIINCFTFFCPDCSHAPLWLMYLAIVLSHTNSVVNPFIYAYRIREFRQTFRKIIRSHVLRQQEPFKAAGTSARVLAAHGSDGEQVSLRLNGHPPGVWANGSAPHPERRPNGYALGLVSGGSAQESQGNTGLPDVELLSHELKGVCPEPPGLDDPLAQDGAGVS

Row | SMILES | IC50
1 | CN=S(=O)(CCc1nc2c3cccc(OC)c3nc(N)n2n1)C1CC1 (single isomer, unassigned) [Example 10.3A, (S or R)-(2-(5-amino-7-methoxy-[1,2,4]triazolo[1,5-c]quinazolin-2-yl)ethyl)(cyclopropyl)(methylimino)-l6-sulfanone] | 1.4 nM
2 | COc1cccc2c1nc(N)n1nc(CCS(=N)(=O)C3CC3)nc21 (single isomer, unassigned) [Example 11.1A, (S or R)-(2-(5-amino-7-methoxy-[1,2,4]triazolo[1,5-c]quinazolin-2-yl)ethyl)(cyclopropyl)(imino)-26-sulfanone] | 1.2 nM
3 | COc1cccc2c1nc(N)n1nc(CCS(=N)(=O)C3CC3)nc21 (single isomer, unassigned) [Example 11.1B, (R or S)-(2-(5-amino-7-methoxy-[1,2,4]triazolo[1,5-c]quinazolin-2-yl)ethyl)(cyclopropyl)(imino)-λ^6-sulfanone] | 3.4 nM
4 | COc1cc(F)cc2c1nc(N)n1nc(CCC3CCn4c(cnc4C4(C(F)(F)F)CC4)C3)nc21 (single isomer, unassigned) [Example 12.3A, (S or R)-9-fluoro-7-methoxy-2-(2-(3-(1-(trifluoromethyl)cyclopropyl)-5,6,7,8-tetrahydroimidazo[1,5-a]pyridin-7-yl)ethyl)-[1,2,4]triazolo[1,5-c]quinazolin-5-amine] | 5.7 nM
5 | COc1cc(F)cc2c1nc(N)n1nc(CCC3CCn4c(cnc4C4(C(F)(F)F)CC4)C3)nc21 (single isomer, unassigned) [Example 12.3B, (R or S)-9-fluoro-7-methoxy-2-(2-(3-(1-(trifluoromethyl)cyclopropyl)-5,6,7,8-tetrahydroimidazo[1,5-a]pyridin-7-yl)ethyl)-[1,2,4]triazolo[1,5-c]quinazolin-5-amine] | 6.7 nM
6 | COc1cc(F)cc2c1nc(N)n1nc(CCC3(O)CCc4c(nnn4C4CC(F)(F)C4)C3)nc21 (single isomer, unassigned) [Example 14.3A, (S or R)-5-(2-(5-amino-9-fluoro-7-methoxy-[1,2,4]triazolo[1,5-c]quinazolin-2-yl)ethyl)-1-(3,3-difluorocyclobutyl)-4,5,6,7-tetrahydro-1H-benzo[d][1,2,3]triazol-5-ol] | 1.1 nM
7 | COc1cc(F)cc2c1nc(N)n1nc(CCC3(O)CCc4c(nnn4C4CC(F)(F)C4)C3)nc21 (single isomer, unassigned) [Example 14.3B, (R or S)-5-(2-(5-amino-9-fluoro-7-methoxy-[1,2,4]triazolo[1,5-c]quinazolin-2-yl)ethyl)-1-(3,3-difluorocyclobutyl)-4,5,6,7-tetrahydro-1H-benzo[d][1,2,3]triazol-5-ol] | 3.4 nM
8 | CC(C)(N)c1ccc([C@H]2C[C@@H]2Cc2nc3c4cc(F)cc(F)c4nc(N)n3n2)cc1 [Example 8.3B, 2-(((1R,2S)-2-(4-(2-aminopropan-2-yl)phenyl)cyclopropyl)methyl)-7,9-difluoro-[1,2,4]triazolo[1,5-c]quinazolin-5-amine] | 25.4 nM
9 | COc1cccc2c1nc(N)n1nc(CCOc3ccc(C(O)(C(F)(F)F)C(F)(F)F)cc3)nc21 [Example 9.1, 2-(4-(2-(5-amino-7-methoxy-[1,2,4]triazolo[1,5-c]quinazolin-2-yl)ethoxy)phenyl)-1,1,1,3,3,3-hexafluoropropan-2-ol] | 1.7 nM
10 | COc1ccc2c(c1)nc(N)n1nc(CCS(=O)(=O)C3CC3)nc21 [Example 13.6, 2-(2-(cyclopropylsulfonyl)ethyl)-8-methoxy-[1,2,4]triazolo[1,5-c]quinazolin-5-amine] | 8.2 nM
11 | COc1cc(F)cc2c1nc(N)n1nc(Cc3cnn(CCCC(C)(C)O)c3)nc21 [Example 16.4, 5-(4-((5-amino-9-fluoro-7-methoxy-[1,2,4]triazolo[1,5-c]quinazolin-2-yl)methyl)-1H-pyrazol-1-yl)-2-methylpentan-2-ol] | 15.3 nM

Further compounds by falling IC50, results first:

Row | IC50 | SMILES
12 | 43.4 nM | COc1cc(F)cc2c1nc(N)n1nc(Cc3cnn(CCC(C)(C)O)c3)nc21 [Example 16.5, 4-(4-((5-amino-9-fluoro-7-methoxy-[1,2,4]triazolo[1,5-c]-quinazolin-2-yl)methyl)-1H-pyrazol-1-yl)-2-methylbutan-2-ol]
13 | 38.1 nM | CC(C)(N)c1ccc([C@@H]2C[C@H]2Cc2nc3c4cc(F)cc(F)c4nc(N)n3n2)cc1 [Example 8.3A, 2-(((1S,2R)-2-(4-(2-aminopropan-2-yl)phenyl)cyclopropyl)methyl)-7,9-difluoro-[1,2,4]triazolo[1,5-c]quinazolin-5-amine]
14 | 34.2 nM | Nc1nc2c(F)cc(F)cc2c2nc(CCCS(=O)(=O)C3CC3)nn12 [Example 13.20, 2-(3-(cyclopropylsulfonyl)propyl)-7,9-difluoro-[1,2,4]triazolo[1,5-c]quinazolin-5-amine]
15 | 21.8 nM | CS(=O)(=O)CCCc1nc2c3cc(F)cc(F)c3nc(N)n2n1 [Example 13.19, 7,9-difluoro-2-(3-(methylsulfonyl)propyl)-[1,2,4]triazolo[1,5-c]quinazolin-5-amine]
16 | 14.9 nM | CCOC(=O)CCCn1cc(Cc2nc3c4cc(F)cc(OC)c4nc(N)n3n2)cn1 [Example 16.3, ethyl 4-(4-((5-amino-9-fluoro-7-methoxy-[1,2,4]triazolo[1,5-c]quinazolin-2-yl)methyl)-1H-pyrazol-1-yl)butanoate]
17 | 10.9 nM | COc1cccc2c1nc(N)n1nc(CC(C)(CO)CO)nc21 [Example 3.2, 2-((5-amino-7-methoxy-[1,2,4]triazolo[1,5-c]quinazolin-2-yl)methyl)-2-methylpropane-1,3-diol]
18 | 3.7 nM | CN=S(=O)(CCc1nc2c3cccc(OC)c3nc(N)n2n1)C1CC1 (single isomer, unassigned) [Example 10.3B, (R or S)-(2-(5-amino-7-methoxy-[1,2,4]triazolo[1,5-c]quinazolin-2-yl)ethyl)(cyclopropyl)(methylimino)-λ^6-sulfanone]
19 | 2.7 nM | COc1ccc(C2=COCCC2)c2c1nc(N)n1nc(CO)nc21 [Example 15.4, (5-amino-10-(3,4-dihydro-2H-pyran-5-yl)-7-methoxy-[1,2,4]triazolo[1,5-c]quinazolin-2-yl)methanol]
20 | 1.6 nM | COc1cccc2c1nc(N)n1nc(CCS(=O)(=O)C3CC3)nc21 [Example 13.3, 2-(2-(cyclopropylsulfonyl)ethyl)-7-methoxy-[1,2,4]triazolo[1,5-c]quinazolin-5-amine]
